Data taken from PubChem BioAssay (NCI).
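Method: 48-hour compound exposure of cells in 96-well plates, five concentrations, linear interpolation of endpoints. TGI: concentration producing complete growth inhibition.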

What was measured:
Test in all cases: DTP human tumour cell line panel, 48 h
NCI/ADR-RES ovarian = system: NCI/ADR-RES ovarian
U251 CNS = system: U251 CNS
BT-549 breast = system: BT-549 breast
MALME-3M melanoma = system: MALME-3M melanoma
HCT-15 colon = system: HCT-15 colon
SR leukemia = system: SR leukemia
CCRF-CEM leukemia = system: CCRF-CEM leukemia
IGROV1 ovarian = system: IGROV1 ovarian
SK-MEL-5 melanoma = system: SK-MEL-5 melanoma
OVCAR-4 ovarian = system: OVCAR-4 ovarian
OVCAR-3 ovarian = system: OVCAR-3 ovarian
HCC-2998 colon = system: HCC-2998 colon
NCI-H522 lung = system: NCI-H522 lung
PC-3 prostate = system: PC-3 prostate
UACC-62 melanoma = system: UACC-62 melanoma
SK-OV-3 ovarian = system: SK-OV-3 ovarian
CAKI-1 renal = system: CAKI-1 renal
A498 renal = system: A498 renal
HCT-116 colon = system: HCT-116 colon
HT29 colon = system: HT29 colon
TK-10 renal = system: TK-10 renal
EKVX NSCLC = system: EKVX NSCLC
SF-268 CNS = system: SF-268 CNS
UACC-257 melanoma = system: UACC-257 melanoma
UO-31 renal = system: UO-31 renal
NCI-H23 lung = system: NCI-H23 lung
MDA-MB-231 breast = system: MDA-MB-231 breast
M14 melanoma = system: M14 melanoma
KM12 colon = system: KM12 colon
LOX IMVI melanoma = system: LOX IMVI melanoma
SK-MEL-2 melanoma = system: SK-MEL-2 melanoma
MDA-N = system: MDA-N
SF-295 CNS = system: SF-295 CNS
RXF 393 renal = system: RXF 393 renal
786-0 renal = system: 786-0 renal
OVCAR-8 ovarian = system: OVCAR-8 ovarian
SK-MEL-28 melanoma = system: SK-MEL-28 melanoma
RPMI-8226 leukemia = system: RPMI-8226 leukemia
A549 NSCLC = system: A549 NSCLC
K-562 leukemia = system: K-562 leukemia
SNB-75 CNS = system: SNB-75 CNS
MOLT-4 leukemia = system: MOLT-4 leukemia
SNB-19 CNS = system: SNB-19 CNS
MCF7 breast = system: MCF7 breast
ACHN renal = system: ACHN renal
SN12C renal = system: SN12C renal
DU-145 prostate = system: DU-145 prostate
OVCAR-5 ovarian = system: OVCAR-5 ovarian
COLO 205 colon = system: COLO 205 colon
HS 578T breast = system: HS 578T breast
NCI-H460 lung = system: NCI-H460 lung
MDA-MB-435 = system: MDA-MB-435
SW-620 colon = system: SW-620 colon
NCI-H226 lung = system: NCI-H226 lung
T-47D breast = system: T-47D breast
HOP-62 NSCLC = system: HOP-62 NSCLC
HL-60(TB) leukemia = system: HL-60(TB) leukemia
SF-539 CNS = system: SF-539 CNS
HOP-92 NSCLC = system: HOP-92 NSCLC

Measured: TGI

O=C(O)Cc1ccc2[nH]c(O)c(C3=Nc4ccccc4C3=O)c2c1
68.5 µM: HCT-116 colon
98.7 µM: A498 renal
93 µM: SR leukemia
77.5 µM: HS 578T breast
67.3 µM: OVCAR-3 ovarian
85.7 µM: UACC-62 melanoma
92.1 µM: COLO 205 colon
55.6 µM: SK-MEL-5 melanoma
58.5 µM: RXF 393 renal
94.8 µM: SK-OV-3 ovarian
48.2 µM: IGROV1 ovarian
36.1 µM: MCF7 breast
not listed: HL-60(TB) leukemia | SF-539 CNS | HOP-92 NSCLC
> 100 µM: all other assays above

O=C1c2cc(Cl)ccc2NC(=NCCCl)C2CSCN12 (stereo not given)
not listed: NCI-H23 lung | SNB-75 CNS | HL-60(TB) leukemia | SF-539 CNS | HOP-92 NSCLC
> 100 µM: all other assays above

O=C(O)CC1NCc2cc3ccccc3nc21 (stereo not given)
> 100 µM: all assays above

O=[N+]([O-])c1ccc(C=NCC2CCCN3CCCCC23)cc1 (stereo not given)
34.9 µM: HT29 colon
30.4 µM: LOX IMVI melanoma
52.1 µM: 786-0 renal
66.6 µM: MCF7 breast
48.1 µM: RPMI-8226 leukemia
not listed: OVCAR-3 ovarian | NCI-H226 lung | SF-539 CNS
> 100 µM: all other assays above

COC(=O)[C@H](Cc1c[nH]c2ccccc12)NC(=O)c1ccc(CNC(=O)/C=C/c2cccc(Oc3ccccc3)c2)cc1
40.3 µM: UACC-257 melanoma
23.9 µM: MDA-N
82.8 µM: SK-MEL-2 melanoma
27.8 µM: MDA-MB-435
81.6 µM: RXF 393 renal
not listed: NCI-H522 lung | LOX IMVI melanoma | HL-60(TB) leukemia | SF-539 CNS
> 100 µM: all other assays above

O=Cc1cccc2c1Oc1c(cccc1C(=O)O)S2
68.1 µM: MOLT-4 leukemia
44.3 µM: KM12 colon
55.6 µM: COLO 205 colon
63.3 µM: RPMI-8226 leukemia
not listed: CCRF-CEM leukemia | RXF 393 renal | K-562 leukemia | HL-60(TB) leukemia
> 100 µM: all other assays above
